Measurements published in patent publication US6696069B2, “Skin care cosmetic compositions containing phosphates and/or sulfates of branched alcohols and/or ethoxylates thereof” (Unilever Home & Personal Care USA, division of Conopco, Inc., priority 2000, dated 2004).
Several values for one entry are separate records, joined by “and”; a condition that tells them apart may be missing. Equal entries are not always repeated. Structures can show the parent of a compound that is named as a salt. Marks after values point to notes of the source that are not given here.

Key:
human sebocytes = assay: Inhibition of sebocyte lipogenesis (14C-acetate incorporation); format: cell-based; details: for lipogenesis inhibition (result in words): in combination with retinol, in comparison to either alone
[1] = test system: Neonatal human dermal fibroblasts; assay: Production of procollagen I by fibroblasts (slot blot, densitometry); format: cell-based; details: for Average OD (optical density) Reading / Fold increase Over Control / % Increase (+) or % decrease (−−) over control: procollagen I; for collagen synthesis by fibroblasts (result in words): text summary of Tables 1 and 5; for % Increase (+) or % decrease (−−) over control: positive control, concentration not given
Protocol: This example measured production of procollagen I by fibroblasts in response to treatment with various straight chain and branched alcohols alone.
Procollagen I Staining Protocol for Slot Blot
Neonatal human dermal fibroblasts were purchased from Clonetics Corp., San Diego, Calif. All materials for cell culture were purchased from Life Technologies, NY (and used in passages 5-10). Cells were seeded at a density of approximately 10,000/well in the inner 48 wells of a 96-well plate in a medium containing DMEM (Dulbecco's Modified Eagle's Medium), high-glucose supplemented with 2 mM L-glutamine, 10% fetal bovine serum, and antibiotic and antimycotic solutions. Cells were then grown to confluence for 2 days. At confluence, the medium was removed and cells were washed with serum-free DMEM, and each well dosed with 200 μl of a solution of a test compound in serum-free DMEM. Each dosing was replicated in a total of six wells. […] After 24 hours, the test compound solution or the control solution was removed and cells redosed with 100 μl of a solution of a test compound in serum-free DMEM.
Nitrocellulose membrane and 3 sheets of filter paper were soaked in TRIS buffered saline (TBS, pH 7.3.). BioRad slot blot apparatus (BioRad Labs, CA) was set up with 3 sheets filter paper on bottom, membrane on top, and tightened. […] TBS was added per well. Vacuum was used to suck TBS through membrane. The test compound solution or control was vortexed, then 100 μl was loaded per well and gravity filtered. Procollagen from the test solution was bound to the membrane at this point in the procedure. Membrane was removed from the apparatus, excess cut off, and bottom right corner notched for orientation. The membrane was placed in blocking solution (5% milk powder in Dulbecco's phosphate buffered saline) overnight at 4° C., with shaking. The membrane was then incubated for 1.5 hrs at room temperature with 1.5 mL Rat Anti-Human Procollagen Amino-Terminal Ab (Chemicon MAB1912) in TBS with 0.1% BSA (Bovine Serum Albumin) (ratio of antibody to buffer/BSA was 1:100) in a sealed bag with shaking. The membrane was then removed; washed 3 times for 5 minutes in TBS/0.1% Tween. The membrane was then incubated for 1 hour at room temperature in 2 mL of Biotinylated Anti-Rat Peroxidase-Conjugated Ab (Vector Labs) in TBS with 0.1% BSA (ratio of antibody to buffer/BSA was 1:1000) in a sealed bag with shaking. The membrane was then stained using the following solution:
12.5 mg 3-amino 9-ethyl carbazole (Sigma)
3.125 (approximately) mL DMF (N,N-dimethylformamide, from Sigma)
The membrane was stained until color developed and the reaction stopped with 2 washes for 10 minutes in tap water. The blot was scanned on a Bio-Rad GS700 Image Analysis densitometer. Percent change from control was calculated from densitometer readings as follows: [(Reading for test compound−Reading for control)/Reading for control]*100. Control has a reading of 100%. Statistical significance (p value) was calculated using student's t-test.
TGF-B is a positive control, ensuring the integrity of the assay: transforming growth factor beta is known to increase procollagen I in fibroblasts.
This example measured production of procollagen I by fibroblasts in response to treatment with various test compounds.
The experiment was conducted as described in Example 1 above. Fold increase was calculated as a ratio of densitometer reading for cells treated with a test compound over control.

[2] = lipogenesis, 1 μM + 1 μM Retinol
[3] = lipogenesis, 1 μM + 10 μM Retinol
[4] = lipogenesis, 10 μM + 1 μM Retinol
[5] = lipogenesis, 10 μM + 10 μM Retinol

In the case of Iso-tridecyl Sulfate, the “lipogenesis (result in words)” value (human sebocytes; alone or as a salt, Table 2) is reported as “reduced lipogenesis production”, the “lipogenesis inhibition (result in words)” value (human sebocytes) is reported as “improved lipogenesis inhibition” and the “% of Control” value (human sebocytes; [2]) is reported as 70.6* %. The “% of Control” value (human sebocytes; [3]) was 64.4* %, the “% of Control” value (human sebocytes; lipogenesis, 1 μM, alone) was 72.5* % and the “% of Control” value (human sebocytes; [4]) was 56.1* %. For the same compound, the “% of Control” value (human sebocytes; [5]) was 47.5* %, the “% of Control” value (human sebocytes; lipogenesis, 10 μM, alone) was 58.2* % and the “% of Control” value (human sebocytes; lipogenesis, 35.6 μM, alone) was 63.5%. The “% of Control” value (human sebocytes; lipogenesis, 178 μM, alone) was 18.1* %, the “% of Control” value (human sebocytes; lipogenesis, 356 μM, alone) was 7.4* % and the “Average OD (optical density) Reading” value ([1]; Plate 1, 0.0001%) was 1.000. The “Fold increase Over Control” value ([1]; Plate 1, 0.0001%) was 1.28, the “Average OD (optical density) Reading” value ([1]; Plate 1, 0.001%) was 1.223 and the “Fold increase Over Control” value ([1]; Plate 1, 0.001%) was 1.56. For the same compound, the “collagen synthesis by fibroblasts (result in words)” value [1] was “increased collagen production”.
With TGF-B [reference compound] the “% Increase (+) or % decrease (−−) over control” value ([1]; Experiment 1) was “+50* %”, the “% Increase (+) or % decrease (−−) over control” value ([1]; Experiment 2) was “+140* %” and the “Average OD (optical density) Reading” value ([1]; Plate 1, 0.001%) was 1.348. The “Fold increase Over Control” value ([1]; Plate 1, 0.001%) was 1.72, the “Average OD (optical density) Reading” value ([1]; Plate 2, 0.001%) was 1.653 and the “Fold increase Over Control” value ([1]; Plate 2, 0.001%) was 1.65.
Compound CC(C)CCCCCCCCCCOS(=O)(=O)O [Iso-tridecyl Sulfate, sodium salt] has an activity at 33.1 µM (human sebocytes; Homo sapiens, lipogenesis, 33.1 μM, alone, read-out: % of Control) of 54.9%, an activity at 165.5 µM (human sebocytes; Homo sapiens, lipogenesis, 165.5 μM, alone, read-out: % of Control) of 14% and an activity at 331 µM (human sebocytes; Homo sapiens, lipogenesis, 331 μM, alone, read-out: % of Control) of 5.5%.
With O=S1(=O)OC(c2ccc(O)cc2)(c2ccc(O)cc2)c2ccccc21 [Phenol Red, reference compound] the activity at 28 µM (human sebocytes; Homo sapiens, lipogenesis, 28 μM, alone, read-out: % of Control) was 91.9%, the activity at 280 µM (human sebocytes; Homo sapiens, lipogenesis, 280 μM, alone, read-out: % of Control) was 58.1% and the “% of Control” value (human sebocytes; lipogenesis, 28 μM, alone) was 92.0% and 79.3% and 84.0%. The “% of Control” value (human sebocytes; lipogenesis, 280 μM, alone) was 61.7* % and 70.6* %.
In the case of Iso-tridecyl Phosphate (Disodium salt), the “% of Control” value (human sebocytes; lipogenesis, 1 μM, alone) is reported as 90.7%, the “% of Control” value (human sebocytes; lipogenesis, 10 μM, alone) is reported as 88.4% and the “% of Control” value (human sebocytes; lipogenesis, 100 μM, alone) is reported as 88.3%.
For Iso-tridecyl Phosphate, the “lipogenesis inhibition (result in words)” value (human sebocytes) was “enhanced inhibition of lipogenisis production”, the “% of Control” value (human sebocytes; [2]) was 78.1* % and the “% of Control” value (human sebocytes; [3]) was 71.6* %. For the same compound, the “% of Control” value (human sebocytes; [4]) was 70.6* %, the “% of Control” value (human sebocytes; [5]) was 66.9* % and the “% of Control” value (human sebocytes; lipogenesis, 100 μM + 1 μM Retinol) was 74.1* %. For the same compound, the “% of Control” value (human sebocytes; lipogenesis, 100 μM + 10 μM Retinol) was 78.2%, the “Average OD (optical density) Reading” value ([1]; Plate 2, 0.0001%) was 2.170 and the “Fold increase Over Control” value ([1]; Plate 2, 0.0001%) was 2.17. The “Average OD (optical density) Reading” value ([1]; Plate 2, 0.001%) was 1.460, the “Fold increase Over Control” value ([1]; Plate 2, 0.001%) was 1.460 and the “collagen synthesis by fibroblasts (result in words)” value [1] was “increased collagen production”.
In the case of CC1=C(/C=C/C(C)=C/C=C/C(C)=C/CO)C(C)(C)CCC1 [Retinol, reference compound], the activity at 1 µM (human sebocytes; Homo sapiens, lipogenesis, 1 μM, alone, read-out: % of Control) is reported as 91.8%, the activity at 10 µM (human sebocytes; Homo sapiens, lipogenesis, 10 μM, alone, read-out: % of Control) is reported as 106% and the “% of Control” value (human sebocytes; lipogenesis, 1 μM, alone) is reported as 97.4% and 93.2% and 91.5%. For the same compound, the “% of Control” value (human sebocytes; lipogenesis, 10 μM, alone) was 106.0% and 101.8%.
